Our source for the IC50 values is patent US20240109917A1 (ACTELION PHARMACEUTICALS LTD, priority 2020, published 2024).

The term pIC50 denotes the IC50 on a negative log10 scale, so that one unit is a factor of ten.

pIC50: −log10 of the molar value.

Test [1] concerns the target His6-TEV-PDGFRβ (557-1016) (Homo sapiens (Human), UniProt P09619). In words: PDGFRβ HTRF Assay. The following applies: read-out: PDGFR HTRF IC50. It is filed as biochemical. The protocol: Instrumentation: a. Compound liquid handling: LabCyte Echo; b. Reagent liquid handling: Thermo Scientific Multidrop Combi; c. BMG PHERAStar multilabel plate reader.
Protein Reagent: His6-TEV-PDGFRβ Protein Prep prepared at Accelagen.
(§1) II. Methods and Procedures
Assay buffer stock solution, contains 50 mM Hepes, 10 mM MgCl2, 1 mM EGTA, and 0.01% Brij-35, 0.01% ovalbumin, 2 mM DTT at pH 7.5, in molecular biology grade water. Store at room temperature.
DTT, 2 M in molecular biology grade water, store at −20° C. in aliquots.
Ovalbumin, 10% or 100 mg/mL, prepare fresh on experimental day.
PDGFRβ, 116 μM (PDGFRb_08 Prep 02), produced at Accelagen. Store at −80° C. in aliquots.
TK-biotin peptide, […] in molecular biology grade water, store at −20° C. in aliquots.
ATP, 100 mM in molecular biology grade water, store at −20° C. in aliquots.
HTRF KinEASE-TK kit: Allow the contents of the Cisbio kit to warm up to room temperature before use. This kit contains HTRF detection buffer, TK-Antibody labeled with Eu^3+-cryptate, TK-substrate biotin and Streptavidin-XL665.
TK Substrate-Biotin, reconstitute 500 μg lyopholized with 574 μL molecular biology grade water to prepare a 500 μM stock; After use, aliquot the rest and store at −20° C.
TK Antibody-Cryptate, reconstitute lyophilized with 1 mL of molecular biology grade water (100× solution) then add 99 mL detection buffer to prepare a ready to use TK-antibody-cryptate solution; the concentration of the TK-antibody-cryptate reagent is not known. After use, aliquot the rest and store at −20° C.
Streptavidin-XL665, reconstitute 3 mg lyophilized with 3 mL molecular biology grade water to prepare a 1 mg/mL or 16.67 μM stock; MW=60 kDa; After use, aliquot the rest and store at −20° C.
(§2) Freshly Prepared Solutions:
Assay buffer. Dilute 5× Kinase buffer 5-fold with molecular biology grade water and add DTT to 2 mM and ovalbumin to 0.1 mg/mL (or 0.01%).
2× protein solution. Make a working solution of […] PDGFRβ in assay buffer. Keep on ice until use to maintain enzyme stability.
2× substrate solution. Make a working solution of 1.6 mM ATP and 1 μM TK-substrate biotin peptide in assay buffer.
3× quench/detection solution. Make a working solution of 0.1875 μM SA-XL665 and the TK-antibody cryptate diluted by 12 of total quench/detection volume in assay buffer.
Keep final streptavidin/biotin ratio at 1 to 8.
Example of 3× quench/detection solution preparation: 8 mL total volume.
TK antibody-cryptate in detection buffer—4000 μL
The kinase reaction is stopped by the addition of the detection reagents which contain EDTA (detection step).
Assay in white ProxiPlate 384-well
Step 1. Dispensing inhibitors/DMSO and low control: Using the ECHO 555 acoustic dispenser, spot desired compound serial dilutions in DMSO, NEAT DMSO to represent the uninhibited enzyme control, and 10 μM final [imatinib] to the represent the 100% inhibited enzyme control
Step 2. PDGFRβ E+I pre-incubation: Add 2 μL 2× protein solution to columns 1-24 using the Multidrop Combi. Centrifuge at 1000 rpm for 1 min. Incubate 30 min at RT
Step 2. Enzymatic reaction: Add 2 μL substrate solution to columns 1-24 to initiate the reaction using the Multidrop Combi; cover/seal the assay plate to reduce evaporation. Centrifuge at 1000 rpm for 1 min. Incubate at room temperature for 3 hours.
Step 3. Quench/Detection: Add 2 μl 3× quench/detection solution to columns 1-24 using the Multidrop Combi; cover/seal the plate. Centrifuge 1 min 1000 rpm. Incubate at RT for 60 min. Read the plate in PHERAstar (or similar instrument) on HTRF setting at excitation 337 nm—dual emission—665/620 nm ratio.
(§3) III. Calculations and Formulas
HTRF ratio values calculated by the instrument (Ratio is acceptor counts/donor counts*10,000) is exported from the plate reader and used in data analysis. […] Assay statistics can include Robust Z′ and Signal to Background.
% Inhibition Calculation: Percent inhibition will be calculated for sample wells based on the equation: […]
Background: Time-resolved FRET reads energy transfer from a long-lived donor to a nearby acceptor.

The target in a further test is VEGFR2, unphosphorylated (Homo sapiens (Human), UniProt P35968). Nature of the test: VEGFR ADP GLO Assay. Type of test: biochemical. On the procedure:
as §1
Assay buffer stock contains 50 mM HEPES pH7.5, 10 mM MgCl2, 0.01% Brij-35, and 1 mM EGTA.
Unphosphorylated VEGFR2. […] Store at −80° C. in aliquots.
Sonicate 10 mg/ml Srctide solution for 10 minutes and then vacuum filter.
Freshly Prepared Solutions
2× kinase solution. Make a working solution of 10 nM unphosphorylated VEGFR2 in Assay buffer. Vacuum filter 2× kinase solution prior to running assay. Keep on ice until use.
2× substrate/ATP solution. Make a working solution of 2 mg/mL srctide and 2.4 mM ATP in Assay buffer. Keep on ice until use.
Step 1. Dispensing inhibitors/controls: Using Echo, dispense 10 nL/well compound serial dilutions in DMSO to columns 1-22 (in 384-well plates) or columns 1-44 (in 1536-well plates). Dilution series=11 pt, 3-fold dilutions. The top compound concentration in the source plate is 4 mM. The top compound concentration in the assay plate is 10 uM. Using Echo, dispense 10 nl/well DMSO to column 23 (in 384-well plates) or columns 45-47 (in 1536-well plates). […] These wells will serve as positive control wells.
Step 2. Pre-incubation of inhibitors with kinase: Add 2 μL/well 2× kinase solution. Centrifuge at 1000 rpm for 1 min. Incubate at room temperature for 30 min.
Step 3. Kinase cascade reaction: Add 2 μL/well 2× substrate/ATP solution to initiate kinase reactions. Centrifuge at 1000 rpm for 1 min. Incubate at room temperature for 180 min.
Final concentrations of components in the assay:
Step 4. Quench: Add 2 uL/well ADP Glo Reagent+0.05% CHAPS. Centrifuge at 1000 rpm for 1 min; Incubate at room temperature for one hour.
Step 5. Detection: Add 2 uL/well Kinase Detection Reagent+0.05% CHAPS. Centrifuge at 1000 rpm for 1 min; Incubate at room temperature for 1 hour; Read Luminescence on a plate reader.
as §3
IC50 values are determined from a 4-parameter fit, using the following equation: Y=Bottom+(Top−Bottom)/(1+10^(Log IC50-X)*Hill slope) where X=log10 of the compound concentration; top can be defined by PC; bottom defined by NC.

The target in the next test is PDGFRβ (Rattus norvegicus (Rat), UniProt Q05030). Nature of the test: PDGFRβ Cellular Assay (PDGFRb P-Y751 HTRF in A10 cells stimulated with PDGF-BB). Type of test: cell-based. The following applies: PDGFR Cellular IC50. The protocol:
as §1
Cell Culture and Preparation: Cells are cultured according to ATCC procedure (5) with the addition of the antibiotic penicillin-streptomycin. If working from frozen, cells should be thawed according to ATCC procedure. Depending on the cell density of frozen vial, cells will need time to recover from thaw. An 80% confluent T75 flask should be enough for one 384 well plate.
Stock Solutions: Rat PDGFBB. A 100 ug/mL stock is prepared by reconstituting 50 ug in 500 uL of 4 mM HCl and 0.1% BSA. It can be stored for a month at 4° C., or aliquoted out and frozen in the −20/−80° C. to avoid multiple free-thaw cycles.
as §2
1× Cisbio cell lysis buffer. The cell lysis buffer is diluted 4-fold with molecular grade water. The blocking agent is then diluted 25-fold in the diluted lysis buffer.
Antibody solutions. Equal amounts d2 and cryptate antibody are diluted 20-fold in detection buffer.
Rat PDGFBB. A working stock of 100 ng/mL is created from the stock solution in 10% FBS culture media.
Step 1: Plating Cells: Media from the A10 cell flask is aspirated. The cells are rinsed with PBS and then trypsinized to disperse the cell layer. The cells are then pelleted are resuspended to 1.25e5 cells/mL. […] Plates are covered and placed in the incubator (37° C. 5% CO2) overnight to allow cells to adhere.
Step 2: Compound Dispense: Approximately 18 hours after plating, dispense 40 nL compound onto cells using Echo. Column 12 is the neutral control DMSO, column 24 is the inhibitor control 10 mM Imatinib (10 uM final assay concentration). The plate is returned to the incubator for 3 hours.
After 10 minutes the media is removed by flicking the plate.
Step 4: Cell lysis and antibody addition: 20 uL lysis buffer per well is added to the plate via Tempest. 5 uL antibody solution is added per well via the Tempest. The plate is placed on the shaker at 230 rpm for 1 hour at room temperature.
Step 5: Detection: The plate is read using the HTRF module on the BMG Pherastar. Data is analyzed using Genedata Screener.
as §3
% Inhibition: % Inhibition=(NC−sample)/(NC−PC)*100 where NC is the mean of negative control (reactions without inhibitor), and PC is the mean of positive control (10 μM imatinib).
IC50 values are determined from a 4-parameter fit, using the following equation: Y=Bottom+(Top−Bottom)/(1+10((Log IC50−X)*Hill slope)), where X=log10 of the compound concentration; top can be defined by PC; bottom defined by NC.

Sequence of VEGFR2, unphosphorylated (P35968 20-1356): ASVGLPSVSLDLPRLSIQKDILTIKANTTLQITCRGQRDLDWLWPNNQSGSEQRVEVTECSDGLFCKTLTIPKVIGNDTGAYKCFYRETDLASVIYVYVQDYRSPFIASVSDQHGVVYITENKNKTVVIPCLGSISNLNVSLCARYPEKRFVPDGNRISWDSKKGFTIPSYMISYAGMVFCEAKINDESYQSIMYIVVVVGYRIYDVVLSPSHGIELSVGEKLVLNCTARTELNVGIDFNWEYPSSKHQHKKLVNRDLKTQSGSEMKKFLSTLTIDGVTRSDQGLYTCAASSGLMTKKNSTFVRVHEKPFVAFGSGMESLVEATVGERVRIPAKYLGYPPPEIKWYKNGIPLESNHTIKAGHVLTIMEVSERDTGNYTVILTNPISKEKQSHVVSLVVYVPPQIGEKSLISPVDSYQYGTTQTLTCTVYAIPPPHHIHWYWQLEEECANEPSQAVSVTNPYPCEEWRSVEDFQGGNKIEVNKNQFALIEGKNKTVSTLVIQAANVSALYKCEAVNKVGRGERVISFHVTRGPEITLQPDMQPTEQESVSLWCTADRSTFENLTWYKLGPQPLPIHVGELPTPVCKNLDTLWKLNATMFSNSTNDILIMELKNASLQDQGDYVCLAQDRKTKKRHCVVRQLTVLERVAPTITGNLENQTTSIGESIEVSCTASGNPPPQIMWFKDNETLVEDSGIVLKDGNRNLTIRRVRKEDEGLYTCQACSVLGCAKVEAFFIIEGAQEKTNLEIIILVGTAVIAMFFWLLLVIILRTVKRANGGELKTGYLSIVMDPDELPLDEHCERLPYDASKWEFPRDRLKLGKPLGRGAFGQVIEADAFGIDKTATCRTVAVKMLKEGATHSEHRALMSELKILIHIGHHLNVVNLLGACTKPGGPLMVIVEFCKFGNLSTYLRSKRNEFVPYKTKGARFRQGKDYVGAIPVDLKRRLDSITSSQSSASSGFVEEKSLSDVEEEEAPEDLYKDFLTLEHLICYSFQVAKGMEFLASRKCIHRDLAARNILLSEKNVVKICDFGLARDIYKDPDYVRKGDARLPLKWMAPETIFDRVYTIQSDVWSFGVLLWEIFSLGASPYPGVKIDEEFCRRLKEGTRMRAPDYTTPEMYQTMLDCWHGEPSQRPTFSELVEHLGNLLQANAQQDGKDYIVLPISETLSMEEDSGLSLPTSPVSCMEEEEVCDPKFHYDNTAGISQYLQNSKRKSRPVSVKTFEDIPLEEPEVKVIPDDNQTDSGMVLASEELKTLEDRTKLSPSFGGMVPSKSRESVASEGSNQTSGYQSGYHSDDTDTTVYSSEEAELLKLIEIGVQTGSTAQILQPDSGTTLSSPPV
Sequence of PDGFRβ (Q05030 32-1097): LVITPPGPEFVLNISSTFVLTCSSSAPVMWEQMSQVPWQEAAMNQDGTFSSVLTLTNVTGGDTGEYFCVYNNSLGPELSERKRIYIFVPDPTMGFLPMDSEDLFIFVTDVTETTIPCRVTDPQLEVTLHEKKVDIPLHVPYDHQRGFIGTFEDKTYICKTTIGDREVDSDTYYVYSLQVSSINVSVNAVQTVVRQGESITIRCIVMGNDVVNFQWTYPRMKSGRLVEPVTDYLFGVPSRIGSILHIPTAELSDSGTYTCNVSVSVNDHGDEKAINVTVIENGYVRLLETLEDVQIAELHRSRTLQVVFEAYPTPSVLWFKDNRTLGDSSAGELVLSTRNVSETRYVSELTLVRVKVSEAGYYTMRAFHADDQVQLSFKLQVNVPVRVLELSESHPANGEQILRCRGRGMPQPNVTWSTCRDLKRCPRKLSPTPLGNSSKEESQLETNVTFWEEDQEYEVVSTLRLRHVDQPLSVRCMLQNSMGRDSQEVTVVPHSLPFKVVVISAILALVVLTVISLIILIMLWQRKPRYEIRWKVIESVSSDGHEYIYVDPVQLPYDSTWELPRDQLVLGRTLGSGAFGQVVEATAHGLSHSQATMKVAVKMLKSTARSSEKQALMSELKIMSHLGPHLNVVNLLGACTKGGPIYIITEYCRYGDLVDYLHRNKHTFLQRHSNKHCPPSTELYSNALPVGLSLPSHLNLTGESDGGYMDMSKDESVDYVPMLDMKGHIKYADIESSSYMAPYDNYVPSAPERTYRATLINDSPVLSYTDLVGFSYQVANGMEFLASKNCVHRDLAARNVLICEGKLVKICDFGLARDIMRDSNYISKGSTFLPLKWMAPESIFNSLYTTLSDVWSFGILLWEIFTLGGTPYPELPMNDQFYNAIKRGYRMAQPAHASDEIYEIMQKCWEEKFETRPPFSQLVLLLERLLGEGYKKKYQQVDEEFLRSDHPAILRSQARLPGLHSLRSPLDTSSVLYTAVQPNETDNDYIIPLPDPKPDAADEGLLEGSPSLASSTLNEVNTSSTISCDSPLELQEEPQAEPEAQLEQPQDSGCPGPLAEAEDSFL
Sequence of His6-TEV-PDGFRβ (557-1016) (P09619 557-1016): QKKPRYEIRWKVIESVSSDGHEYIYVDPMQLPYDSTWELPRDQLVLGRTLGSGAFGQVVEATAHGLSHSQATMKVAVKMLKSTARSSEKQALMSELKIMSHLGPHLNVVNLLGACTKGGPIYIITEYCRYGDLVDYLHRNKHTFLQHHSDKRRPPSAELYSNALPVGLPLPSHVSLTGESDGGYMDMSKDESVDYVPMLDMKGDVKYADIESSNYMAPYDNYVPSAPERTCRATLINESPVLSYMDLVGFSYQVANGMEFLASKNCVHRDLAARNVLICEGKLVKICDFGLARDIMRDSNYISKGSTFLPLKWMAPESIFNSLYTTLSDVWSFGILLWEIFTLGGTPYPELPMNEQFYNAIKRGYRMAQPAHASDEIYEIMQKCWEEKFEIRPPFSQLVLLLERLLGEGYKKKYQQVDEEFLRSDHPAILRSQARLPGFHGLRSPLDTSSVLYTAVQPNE

For `Cc1ncc(NC(=O)CN2CC(C)(C)C2)cc1NC(=O)c1cnn2cc(-c3c(C)noc3C)sc12` [Example 364, N-(5-(2-(3,3-dimethylazetidin-1-yl)acetamido)-2-methylpyridin-3-yl)-2-(3,5-dimethylisoxazol-4-yl)pyrazolo[5,1-b]thiazole-7-carboxamide], the negative-log IC50 (pIC50) was 9.10 in test [1]; < 5.12 at VEGFR2, unphosphorylated; 7.99 at PDGFRβ.

`Cc1ncc(C(=O)NCCN2CC3CCC2CC3)cc1NC(=O)c1cnn2cc(-c3cnn(C)c3)sc12` [Example 1, N-(5-((2-(2-azabicyclo[2.2.2]octan-2-yl)ethyl)carb-amoyl)-2-methylpyridin-3-yl)-2-(1-methyl-1H-pyrazol-4-yl)pyrazolo[5,1-b]thiazole-7-carboxamide]: the pIC50 in test [1] is 9.70; against VEGFR2, unphosphorylated it was < 5.12; at PDGFRβ, 7.47.
